Results: US10745755B2, “Sestrin activators for preventing and/or attenuating skin ageing and/or hydrating the skin and/or for regulating skin pigmentation” (CHANEL PARFUMS BEAUTE, priority 2014, dated 2020)

How the values were obtained:
Assay type in all cases: cell-based
[1] = tested on: Cytokeratin 10; assay: Cytokeratin 10 immunostaining in human skin equivalents; conditions: versus untreated control, retinol last 4 days
Protocol: (§1) Keratinocytes and fibroblasts from juvenile donors were purchased from Promocell. The dermal equivalent consists of a collagen solution containing rat tail collagen type I (BD Biosciences), 10× DMEM medium (Gibco/Invitrogen), sodium bicarbonate (Gibco/Invitrogen) and fibroblasts added into 6 well-culture inserts (BD) and placed in deep 6-well culture plates (BD). After 2 hours, of polymerisation at 37° C., dermal equivalents were equilibrated in supplemented Keratinocyte Growth Medium (KGM2 basal medium+SupplementMix, Promocell) and placed at 37° C., 5% CO2. After 24 hours, suspension of keratinocytes was added over the gel and submerged for 3 days in supplemented Keratinocyte Growth Medium. The inserts were placed at the air liquid interface in Serum-free Keratinocyte Defined Medium (SKDM: SKDM is a high Ca^2+ medium consisting of KGM2 basal medium, transferrin (Sigma), BSA (Sigma) and L-ascorbic acid (Sigma)) for 10 days. 24 hours before culture arrest, skin equivalents were irradiated, in duplicates, with 100 mJ/cm^2 UVB.
(§2) Human skin equivalents were fixed in 10% formalin before embedding in paraffin and cutting into 5 μm-thick sections. Sections were deparaffinized in xylene, rehydrated in ethanol baths, rinsed in deionised water. Antigen retrieval in 10 mM citrate buffer pH6 at 90° C. for 20 minutes was performed before blocking reaction in goat serum 3% for 1 hour. […]

[2] = tested on: Loricrin; assay: Loricrin immunostaining in human skin equivalents; conditions: versus untreated control, extract last 7 days, retinol last 4 days
Protocol: as §1, §2

[3] = tested on: SESN3; assay: SESN3 immunofluorescence in human skin equivalents; conditions: versus untreated control, extract last 7 days, retinol last 4 days
Protocol: as §1, §2

CC1=C(/C=C/C(C)=C/C=C/C(C)=C/CO)C(C)(C)CCC1 [retinol]
decreased: Cytokeratin 10 immunostaining [1] | Loricrin immunostaining [2] | SESN3 staining intensity [3]
